# According to patent US20130315903A1, “ARYLSULFONAMIDE DERIVATIVES FOR THE PREVENTION OR TREATMENT OF SPECIFIC OPHTHALMOLOGIC DISORDERS” (FOVEA PHARMACEUTICALS, priority 2010, published 2013):
# “And” between values parts separate entries of the source, which are not always exact repeats. Equal entries are not always repeated.
# B1: rKBP: Recombinant tissue kallikrein binding protein, reference drug given intravitreally (protein, UniProt P29622 21-427, looked up)
# Kallistatin: QLHVEHDGESCSNSSHQQILETGEGSPSLKIAPANADFAFRFYYLIASETPGKNIFFSPLSISAAYAMLSLGACSHSRSQILEGLGFNLTELSESDVHRGFQHLLHTLNLPGHGLETRVGSALFLSHNLKFLAKFLNDTMAVYEAKLFHTNFYDTVGTIQLINDHVKKETRGKIVDLVSELKKDVLMVLVNYIYFKALWEKPFISSRTTPKDFYVDENTTVRVPMMLQDQEHHWYLHDRYLPCSVLRMDYKGDATVFFILPNQGKMREIEEVLTPEMLMRWNNLLRKRNFYKKLELHLPKFSISGSYVLDQILPRLGFTDLFSKWADLSGITKQQKLEASKSFHKATLDVDEAGTEAAAATSFAIKFFSAQTNRHILRFNRPFLVVIFSTSTQSVLFLGKVVDPTKP
# How the values were obtained:
# [1] = system: leukocyte adhesion to the retinal vasculature; experiment: Leukocyte adhesion to the retinal vasculature (leukostasis) of streptozotocin-diabetic Wistar rats; type: in vivo, rat; conditions: 1% phosphate eye drop twice-a-day for 7 days, P<0.05
# Excerpt: The effect of compound n° 49 phosphate on leukocyte adhesion to the retinal vasculature of streptozotocin-diabetic Wistar rats was also investigated using the same protocol of administration of compound n° 49 phosphate (1% eye drop twice-a-day for 7 days).
# [2] = system: retina of diabetic Wistar rats (B1R, B2R, i-NOS, e-NOS, COX-2, ICAM-1, VEGF-R2, VEGF-a, IL-1β, HIF-1α mRNA); experiment: mRNA expression of cytokines, vasoactive mediators and growth factors in retina of diabetic Wistar rats; type: in vivo, rat; conditions: 1% eye drops 7 days
# [3] = system: retinal vascular permeability in streptozotocin-diabetic Brown-Norway rats; experiment: Retinal vascular permeability (Evans Blue dye) in streptozotocin-diabetic Brown-Norway rats, eye drops; type: in vivo, rat
# Method: Male Brown-Norway or Wistar rats were made diabetic by […] injection of 65 mg/kg intraperitoneal streptozotocin. Rats with a glycemia <350 mg/dl were discarded from the study. Seven days later, Brown-Norway rats were treated twice daily for 7 days with a single eye drop (10 μl) containing 0.1, 0.3, 1 and 3% phosphate salt of compound n° 49 or its vehicle (Saline Solution). Wistar rats were treated over the same period (from day 7 for 7 days) with a single eye drop (10 μl) containing 0.3 and 1% fumarate salt of compound n° 49 or its vehicle (Saline Solution). On day 15, retinal vascular leakage was determined by measurement of retinal content of Evans Blue dye.
# More specifically, FIG. 1A is the dose-response of compound n° 49 instilled twice a day for 7 days as eye drops (0.1 to 3%) on retinal vascular leakage in streptozotocin-diabetic Brown-Norway rats. Recombinant tissue kallikrein binding protein (rKBP) was used as a reference drug and was given intravitreally 48 hours before vascular leakage measurement. Values are means ±standard error mean of 12 eyes/group (6 rats). *** means that P<0.001in a Student's t-test.
# The route by which the phosphate salt of compound n° 49 reaches the retina following topical instillation was investigated to determine whether it is mainly by systemic circulation or by the trans- and/or peri-ocular pathway. Diabetic Brown-Norway rats were treated with 3% compound n° 49 phosphate in a single eye for 7 days or subcutaneously with matching daily dosage (0.6 mg/rat). […] In addition, a daily subcutaneous administration of 0.6 mg compound n° 49 phosphate rat had no effect on retinal vascular permeability.
# [4] = system: retina of diabetic Wistar rats (B1R, B2R, i-NOS, e-NOS, COX-2, ICAM-1, VEGF-R2, VEGF-a, IL-1β, HIF-1α mRNA); experiment: mRNA expression of cytokines, vasoactive mediators and growth factors in retina of diabetic Wistar rats; type: in vivo, rat; conditions: 1% eye drops 7 days; remark: listed apart in the source
# Excerpt: In order to explore molecular pathways involved into reduction of retinal vascular permeability by compound n° 49 phosphate in diabetic rats, expression of mRNA of cytokines, vasoactive mediators and growth factors was quantified in retina of control and diabetic Wistar rats treated or not with 1% compound n° 49 phosphate eye drops for 7 days. Expression of mRNA of B1R, B2R, i-NOS, e-NOS, COX-2, ICAM-1, VEGF-R2, VEGF-a, IL-1β and HIF-1α was increased in diabetic rat retina compared to control by 7.5-fold (P<0.05), 5.5, 15- (P<0.01), 6.5-, 8- (P<0.05), 8- , 5- (P<0.05), 12-, 6.5- (P<0.01) and 7-fold (P<0.05), respectively. Expression of TNF-α mRNA remained unchanged.
# [5] = system: retinal vascular leakage in STZ diabetic Brown-Norway rats; conditions: intravitreal route, positive reference drug; cited from earlier work
molecule,measurement,setting,value
COc1cc(C)c(S(=O)(=O)N(C)CCOCC(=O)N(C)Cc2ccc(C3=NCCN3)cc2)c(C)c1 [compound n° 49 phosphate],leukostasis in retinal vessels of diabetic rats,[1],significantly blunted
same,mRNA expression of IL-1β in retina,[2],down-regulated to control level
same,"reduction of retinal vascular permeability, treated eye","[3]; 3% phosphate in a single eye for 7 days, diabetic Brown-Norway rats, P<0.001",37%
same,"reduction of retinal oedema, maximum","[3]; phosphate salt, eye drop 0.1-3% twice daily for 7 days, dose-dependent, diabetic Brown-Norway rats",55%
same,mRNA expression of B1R in retina,[4],down-regulated to control level
same,mRNA expression of B2R in retina,[4],down-regulated to control level
same,mRNA expression of COX-2 in retina,[4],down-regulated to control level
same,mRNA expression of HIF-1α in retina,[4],down-regulated to control level
same,mRNA expression of ICAM-1 in retina,[4],down-regulated to control level
same,mRNA expression of VEGF-A in retina (in list down-regulated to control level),[4],down-regulated to control level
same,mRNA expression of e-NOS in retina,[4],down-regulated to control level
same,mRNA expression of i-NOS in retina,[4],down-regulated to control level
same,reduction of expression of VEGF-A mRNA in retina,[4],50%
COc1cc(C)c(S(=O)(=O)N(C)CCOCC(=O)N(C)Cc2ccc(C3=NCCN3)cc2)c(C)c1 [compound n° 49],"reduction of retinal edema, maximum","[3]; 1% eye drops, two separate preliminary studies (data not shown), strain not stated",58% and 63%
B1,reduction of retinal vascular leakage,[5],approximately 50%
